In EP1862459A1, “Novel heterocyclic compounds” (GLAXO GROUP LIMITED, priority 2006, dated 2007):
Values after ≈ are worked out from the molar mass of the structure shown.

Assay: physchem
Format: physicochemical
Details: fassif, pH 6.8, Solubility in FaSSIF µg/ml
Description: Compound solubility determination
An amount of 3 mg solid compound with LC-MS purity ≥ 95% was required. This amount was split between 3 different glass vials (1.8 ml volume each), placing 1 mg compound into each one.
Organic solvents of HPLC grade were used. Ultra pure water (Milli-Q grade) was used. Buffers were prepared with ultra pure water and filtered using 0.45 […] cameo filters. The compositions of each solvent employed in this assay are described below (part III).
For each of the three vial samples prepared as described above, in which the amount of compound was totally dissolved, the following procedure was subsequently carried out: • a) A small amount (approx. 0.1mg) of additional solid compound was added to the vial to maintain an excess of the compound in the mixture in the form of undissolved solid. • b) The samples were magnetically stirred for 24 hr. If required, additional solid compound (0.1mg) was added to maintain excess of it and then the samples were stirred again. • c) Then the samples were filtered (Millipore Milex filters nylon 0.2 um) and three aliquots were taken (one from each of the three vials) and analysed by LC-MS. • d) The pH of the final solution in each sample was measured with a pH-meter (WTW pH330i and a pH-electrode Sentix 41).
All filtered aliquots were analysed by LC-MS. […]

## Cc1[nH]c(C=NO)c(-c2ccc(Oc3ccc(OC(F)(F)F)cc3)cc2)c(=O)c1Cl [Example 5, 5-Chloro-6-methyl-4-oxo-3-[4-({4-[(trifluoromethyl)oxy]phenyl}oxy)phenyl]-1,4-dihydro-2-pyridinecarbaldehyde oxime]
  solubility: 5 to 10 µg/mL (≈ 11.4 to 22.8 µM)

## CC1=C(Cl)C(=O)C(CO)(c2ccc(Oc3ccc(OC(F)(F)F)cc3)cc2)CN1 (centres unmarked) [Example 1, 3-Chloro-5-(hydroxymethyl)-2-methyl-5-[4-({4-[(trifluoromethyl)oxy]phenyl}oxy)phenyl]-4(1H)-pyridinone]
  solubility: 1 to 5 µg/mL (≈ 2.34 to 11.7 µM)
